21 compounds from PubChem BioAssay AID256 (DTP/NCI, 2004) can be followed below.

Several values for one entry are separate records, joined by “and”; a condition that tells them apart may be missing. Equal entries are not always repeated. Inconclusive results and toxic doses are left out.

The subject of the assay is CD2F1 mice, L1210 leukemia ip, survival T/C. The assay is described as follows: NCI In Vivo Anticancer Drug Screen. Data for tumor model L1210 Leukemia (intraperitoneal) in CD2F1 (CDF1) mice. The settings on record: higher = longer survival. In short, it runs like this:
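In this screen, transplantable tumors were grown in mice given either the compound or its vehicle. Results were expressed as the treated measurement relative to the control measurement.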

Setting [1] is: endpoint: mean survival time, dose: 100.0 mg/kg/injection, schedule: Q01DX009 (ip), vehicle: saline with Tween-80.
Setting [2] is: endpoint: mean survival time, dose: 100.0 mg/kg/injection, schedule: Q04DX003 (ip), vehicle: saline with Tween-80.
Where [3] appears, read: endpoint: mean survival time, dose: 200.0 mg/kg/injection, schedule: Q01DX009 (ip), vehicle: saline with Tween-80.
Where [4] appears, read: endpoint: mean survival time, dose: 200.0 mg/kg/injection, schedule: Q04DX003 (ip), vehicle: saline with Tween-80.
Where [5] appears, read: endpoint: mean survival time, dose: 400.0 mg/kg/injection, schedule: Q01DX009 (ip), vehicle: saline with Tween-80.
The mark [6] stands for this setting: endpoint: mean survival time, dose: 400.0 mg/kg/injection, schedule: Q04DX003 (ip), vehicle: saline with Tween-80.
[7] abbreviates: endpoint: mean survival time, dose: 100.0 mg/kg/injection, schedule: Q04DX002 (ip), vehicle: saline with Tween-80.
[8] abbreviates: endpoint: mean survival time, dose: 200.0 mg/kg/injection, schedule: Q04DX002 (ip), vehicle: saline with Tween-80.
[9] abbreviates: endpoint: mean survival time, dose: 400.0 mg/kg/injection, schedule: Q04DX002 (ip), vehicle: saline with Tween-80.
Setting [10] is: endpoint: mean survival time, dose: 25.0 mg/kg/injection, schedule: Q04DX002 (ip), vehicle: saline.
The mark [11] stands for this setting: endpoint: mean survival time, dose: 50.0 mg/kg/injection, schedule: Q01DX009 (ip), vehicle: saline with Tween-80.
Where [12] appears, read: endpoint: mean survival time, dose: 100.0 mg/kg/injection, schedule: Q01DX001 (ip), vehicle: saline.
[13] abbreviates: endpoint: mean survival time, dose: 200.0 mg/kg/injection, schedule: Q01DX001 (ip), vehicle: saline.
The mark [14] stands for this setting: endpoint: mean survival time, dose: 400.0 mg/kg/injection, schedule: Q01DX001 (ip), vehicle: saline.

With `Cc1nc(N)nc(N)c1N1CCN(c2ccc(C(=O)NC(C(=O)O)C(=O)O)cc2)CC1`, the T/C by setting is: (endpoint: median survival time, dose: 1.88 mg/kg/injection, schedule: Q01DX005 (ip), vehicle: Klucel + Tween-80) 117 % of control; (endpoint: median survival time, dose: 3.75 mg/kg/injection, schedule: Q01DX005 (ip), vehicle: Klucel + Tween-80) 152 % of control; (endpoint: median survival time, dose: 7.5 mg/kg/injection, schedule: Q01DX005 (ip), vehicle: Klucel + Tween-80) 150 % of control and 163 % of control; (endpoint: median survival time, dose: 15.0 mg/kg/injection, schedule: Q01DX005 (ip), vehicle: Klucel + Tween-80) 167 % of control and 184 % of control; (endpoint: median survival time, dose: 30.0 mg/kg/injection, schedule: Q01DX005 (ip), vehicle: Klucel + Tween-80) 181 % of control.
Turning to `COC(=O)c1cccc2c1OCO2`, the T/C is, setting by setting: under setting [1], 101 % of control; under setting [2], 100 % of control; under setting [3], 101 % of control; under setting [4], 100 % of control; under setting [5], 101 % of control; under setting [6], 103 % of control.
As to `CC1CC2CC(=O)CCC2(C)C2CCC3(C)C(O)CCC3C12` (stereo not drawn), the T/C reads like this: (endpoint: mean survival time, dose: 18.75 mg/kg/injection, schedule: Q01DX009 (ip), vehicle: Klucel (hydroxypropylcellulose) (HPC)) 100 % of control; (endpoint: mean survival time, dose: 37.5 mg/kg/injection, schedule: Q01DX009 (ip), vehicle: Klucel (hydroxypropylcellulose) (HPC)) 100 % of control; (endpoint: mean survival time, dose: 75.0 mg/kg/injection, schedule: Q01DX009 (ip), vehicle: Klucel (hydroxypropylcellulose) (HPC)) 100 % of control; (endpoint: mean survival time, dose: 150.0 mg/kg/injection, schedule: Q01DX009 (ip), vehicle: Klucel (hydroxypropylcellulose) (HPC)) 95 % of control; (endpoint: mean survival time, dose: 300.0 mg/kg/injection, schedule: Q01DX009 (ip), vehicle: Klucel (hydroxypropylcellulose) (HPC)) 95 % of control.
Consider `O=C(/C(=N/N(C(=O)c1ccccc1)c1ccccc1)c1ccccc1)c1ccccc1`, for which the T/C is 102 % of control under setting [2], 88 % of control under setting [4] and 95 % of control under setting [6].
For the compound `Nc1cc2c(cc1Br)-c1ccccc1C2Br` (stereo not drawn), the T/C under setting [2] was 94 % of control and the T/C under setting [6] is 92 % of control.
Turning to `CCCCCCCC/C=C\CCCCCCCCNP(=O)(OCCCCCCCCCCCC)OCCCCCCCCCCCC`, the T/C reads like this: (endpoint: mean survival time, dose: 50.0 mg/kg/injection, schedule: Q04DX002 (ip), vehicle: saline with Tween-80) 93 % of control; under setting [7], 96 % of control; under setting [8], 89 % of control; under setting [9], 100 % of control.
Turning to `COc1cc2ccc(CC(=S)N3CCOCC3)cc2cc1OC`, the T/C by setting is: under setting [1], 98 % of control; under setting [2], 104 % of control; under setting [3], 93 % of control; under setting [4], 95 % of control; under setting [5], 96 % of control.
Regarding `COc1cccc2c1C(=O)c1c(O)c3c(c(O)c1C2=O)C[C@@](O)(C(=O)COC(=O)c1ccccc1)C[C@@H]3OC1CC(N)C(O)C(C)O1` (stereo partly drawn), the T/C is 122 % of control (endpoint: mean survival time, dose: 0.5 mg/kg/injection, schedule: Q01DX009 (ip), vehicle: saline sonified) and 124 % of control (endpoint: mean survival time, dose: 1.3 mg/kg/injection, schedule: Q04DX003 (ip), vehicle: Klucel (hydroxypropylcellulose) (HPC)).
As for `CCCCN=C(N)CCl`, the T/C is 100 % of control under setting [10]; 100 % of control (endpoint: mean survival time, dose: 50.0 mg/kg/injection, schedule: Q04DX002 (ip), vehicle: saline); 100 % of control and 111 % of control (endpoint: mean survival time, dose: 100.0 mg/kg/injection, schedule: Q04DX002 (ip), vehicle: saline).
For the compound `CCOC(=O)C1CC(=O)C2/C(=C(\O)c3ccccc3)C=C([N+](=O)[O-])C1C2[N+](=O)[O-]` (stereo not drawn), the T/C runs as follows: under setting [7], 94 % of control; under setting [8], 94 % of control; under setting [9], 96 % of control.
On to `CCCC(C(=O)O)C1=CCCC1` (stereo not drawn), for which the T/C was 102 % of control (endpoint: mean survival time, dose: 25.0 mg/kg/injection, schedule: Q01DX009 (ip), vehicle: saline with Tween-80); 102 % of control under setting [11]; 100 % of control under setting [1].
`CC(=O)C(C)(NCc1ccccc1)c1ccccc1` (stereo not drawn): the T/C (endpoint: mean survival time, dose: 50.0 mg/kg/injection, schedule: Q01DX009 (ip), vehicle: Klucel (hydroxypropylcellulose) (HPC)) is 97 % of control; the T/C (endpoint: mean survival time, dose: 100.0 mg/kg/injection, schedule: Q01DX001 (ip), vehicle: other) is 100 % of control; the T/C under setting [12] was 101 % of control; the T/C (endpoint: mean survival time, dose: 100.0 mg/kg/injection, schedule: Q01DX009 (ip), vehicle: Klucel (hydroxypropylcellulose) (HPC)) was 100 % of control; the T/C (endpoint: mean survival time, dose: 200.0 mg/kg/injection, schedule: Q01DX001 (ip), vehicle: other) was 92 % of control; the T/C under setting [13] was 95 % of control. In addition, the T/C is, setting by setting: (endpoint: mean survival time, dose: 200.0 mg/kg/injection, schedule: Q01DX009 (ip), vehicle: Klucel (hydroxypropylcellulose) (HPC)) 100 % of control; (endpoint: mean survival time, dose: 400.0 mg/kg/injection, schedule: Q01DX001 (ip), vehicle: other) 107 % of control; under setting [14], 93 % of control; (endpoint: mean survival time, dose: 400.0 mg/kg/injection, schedule: Q01DX009 (ip), vehicle: Klucel (hydroxypropylcellulose) (HPC)) 106 % of control.
With `NOCc1cc(Cl)sc1Cl`, the T/C is, setting by setting: under setting [2], 112 % of control; under setting [4], 121 % of control.
Turning to `F/C(=C\c1ccccc1)c1ccccc1`, the T/C (endpoint: mean survival time, dose: 50.0 mg/kg/injection, schedule: Q01DX001 (ip), vehicle: saline with Tween-80) was 110 % of control; the T/C (endpoint: mean survival time, dose: 100.0 mg/kg/injection, schedule: Q01DX001 (ip), vehicle: saline with Tween-80) was 108 % of control; the T/C (endpoint: mean survival time, dose: 200.0 mg/kg/injection, schedule: Q01DX001 (ip), vehicle: saline with Tween-80) is 101 % of control.
On to `COc1ccc(CN(CCO)Cc2ccccc2)cc1OC`, for which the T/C runs as follows: under setting [11], 100 % of control; under setting [1], 90 % of control; under setting [2], 98 % of control; under setting [3], 100 % of control; under setting [4], 97 % of control.
As for `CC(=O)OC1C(C)OC(n2ncc(=O)[nH]c2=O)C(OC(C)=O)C1OC(C)=O` (stereo not drawn), the T/C by setting is: (endpoint: mean survival time, dose: 12.5 mg/kg/injection, schedule: Q01DX005 (ip), vehicle: distilled water + Tween-80) 103 % of control; (endpoint: mean survival time, dose: 25.0 mg/kg/injection, schedule: Q01DX005 (ip), vehicle: distilled water + Tween-80) 100 % of control; (endpoint: mean survival time, dose: 50.0 mg/kg/injection, schedule: Q01DX005 (ip), vehicle: distilled water + Tween-80) 103 % of control; (endpoint: mean survival time, dose: 100.0 mg/kg/injection, schedule: Q01DX005 (ip), vehicle: distilled water + Tween-80) 103 % of control; (endpoint: mean survival time, dose: 200.0 mg/kg/injection, schedule: Q01DX005 (ip), vehicle: distilled water + Tween-80) 107 % of control.
For the compound `NC(CSC(c1ccccc1)(c1ccccc1)c1cccs1)C(=O)O` (stereo not drawn), the T/C is, setting by setting: (endpoint: mean survival time, dose: 25.0 mg/kg/injection, schedule: Q01DX009 (ip), vehicle: saline) 92 % of control; (endpoint: mean survival time, dose: 100.0 mg/kg/injection, schedule: Q01DX009 (ip), vehicle: saline) 86 % of control; (endpoint: mean survival time, dose: 200.0 mg/kg/injection, schedule: Q01DX009 (ip), vehicle: saline) 95 % of control.
As to `O=c1[nH]cnc2c1ncn2C1OCC(O)C(O)C1O` (stereo not drawn), the T/C is, setting by setting: under setting [12], 102 % of control; under setting [13], 97 % of control; under setting [14], 103 % of control.
Turning to `CC(CC(=O)O)c1ccc(F)cc1` (stereo not drawn), the T/C by setting is: under setting [2], 101 % of control; under setting [4], 100 % of control; under setting [6], 95 % of control.
Take `Cc1ccccc1CC#N`: the T/C by setting is: (endpoint: mean survival time, dose: 12.5 mg/kg/injection, schedule: Q04DX002 (ip), vehicle: saline) 96 % of control; under setting [10], 99 % of control.
In the case of `O=C(O)O.[Co]`, under setting [14], the T/C was 105 % of control.
